What follows are compounds tested against human TrkA (Homo sapiens (Human), UniProt P04629) (assay: Human TrkA inhibition assay (Test Example 2)). Details: Table 152, human TrkA inhibition; read-out: IC50_nM.
Assay type: biochemical
Method in brief: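 Mobility-shift readout of phosphorylated versus unphosphorylated fluorescent peptide gave conversion ratio, normalized to DMSO and no-enzyme wells; IC50 by logistic fit of 10- or 15-point 3-fold dilutions. Conditions: 1 nmol/L enzyme, 15 min compound preincubation, then 500 μmol/L ATP plus 1.5 μmol/L peptide, 120 min, 37 °C.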

human TrkA, sequence (P04629 440-796): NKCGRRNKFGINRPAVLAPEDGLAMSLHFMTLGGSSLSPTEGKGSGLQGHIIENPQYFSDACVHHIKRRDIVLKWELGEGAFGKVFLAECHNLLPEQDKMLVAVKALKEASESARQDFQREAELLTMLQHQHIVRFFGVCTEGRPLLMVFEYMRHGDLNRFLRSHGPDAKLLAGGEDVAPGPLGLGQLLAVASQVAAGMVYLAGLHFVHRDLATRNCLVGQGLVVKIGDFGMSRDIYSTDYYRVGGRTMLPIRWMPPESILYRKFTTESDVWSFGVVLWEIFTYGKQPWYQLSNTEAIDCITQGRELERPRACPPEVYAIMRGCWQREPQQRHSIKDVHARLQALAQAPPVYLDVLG

| IC50 [µM] | SMILES |
| --- | --- |
| < 0.1 | COCCC1C[C@@H](NC(=O)Nc2c(C)c(C3=CCNCC3)nn2-c2ccccc2)[C@H](c2ccccc2)O1 (stereo partly shown) [Compound I-21] |
| < 0.1 | COCCC1C[C@@H](NC(=O)Nc2c(C)c(-c3ccc(OCc4ccccc4)nc3)nn2-c2ccccc2)[C@H](c2ccccc2)O1 (stereo partly shown) [Compound I-14] |

Same assay, conditions: Table 153, human TrkA inhibition; read-out: IC50

| SMILES | IC50 [µM] |
| --- | --- |
| CNC(=O)c1cc(-c2nn(-c3ccccc3)c(NC(=O)N[C@@H]3CN(Cc4csnn4)O[C@H]3c3ccc(F)c(F)c3)c2C)cn(C)c1=O (racemic) [Compound I-151] | < 0.1 |
| CNC(=O)c1cc(-c2nn(-c3ccccc3)c(NC(=O)N[C@@H]3CN(CCOC)O[C@H]3c3ccc(F)cc3)c2C)cn(C)c1=O (racemic) [Compound I-138] | < 0.1 |
| COCCN1C[C@@H](NC(=O)Nc2c(C)c(-c3cnc(N(C)C)nc3)nn2-c2ccccc2)[C@H](c2cnc(F)c(F)c2)O1 [Compound I-133] | < 0.1 |
| COCCN1C[C@@H](NC(=O)Nc2c(C)c(-c3cnc(NC4CC4)nc3)nn2-c2ccccc2)[C@H](c2ccnc(F)c2)O1 (racemic) [Compound I-131] | < 0.1 |
| COCCN1C[C@@H](NC(=O)Nc2c(C)c(-c3cnc4c(c3)c(C)nn4C)nn2-c2ccccc2)[C@H](c2ccnc(F)c2)O1 (racemic) [Compound I-114] | < 0.1 |
| COCCN1C[C@@H](NC(=O)Nc2c(C)c(-c3ccc(C#N)cc3)nn2-c2ccccc2)[C@H](c2cnc(F)c(F)c2)O1 (racemic) [Compound I-60] | < 0.1 |

Continued, values first:

| IC50 [µM] | SMILES |
| --- | --- |
| < 0.1 | COCCN1C[C@@H](NC(=O)Nc2c(C)c(-c3cnc(OC)c(C(N)=O)c3)nn2-c2ccccc2)[C@H](c2ccnc(F)c2)O1 (racemic) [Compound I-109] |
| < 0.1 | COCCN1C[C@@H](NC(=O)Nc2c(C)c(C3=CCNCC3)nn2-c2ccccc2)[C@H](c2cnc(F)c(F)c2)O1 (racemic) [Compound I-48] |

Same assay, conditions: Table 154, human TrkA inhibition; read-out: IC50

| SMILES | IC50 [µM] |
| --- | --- |
| CNC(=O)c1cc(-c2nn(-c3ccc(F)c(F)c3)c(NC(=O)N[C@@H]3CN(CCOC)O[C@H]3c3ccc(F)c(F)c3)c2C)cnc1OC (racemic) [Compound I-181] | < 0.1 |
| COCCN1C[C@@H](NC(=O)Nc2c(C)c(-c3cnc(OC)c(C(=O)NC4CCOCC4)c3)nn2-c2ccc(F)c(F)c2)[C@H](c2ccc(F)c(F)c2)O1 (racemic) [Compound I-182] | < 0.1 |
| COCCN1C[C@@H](NC(=O)Nc2c(C)c(-c3cnc(OC)c(C(=O)O)c3)nn2-c2ccccc2)[C@H](c2cnc(F)c(F)c2)O1 (racemic) [Compound I-179] | < 0.1 |

The remaining lines, values ahead:

| IC50 [µM] | SMILES |
| --- | --- |
| < 0.1 | COCCN1C[C@@H](NC(=O)Nc2c(C)c(-c3cnc(F)nc3)nn2-c2ccccc2)[C@H](c2ccnc(F)c2)O1 (racemic) [Compound I-300] |
| < 0.1 | COCCN1C[C@@H](NC(=O)Nc2c(C)c(-c3ccnc(C(=O)OC)c3)nn2-c2ccccc2)[C@H](c2cnc(F)c(F)c2)O1 [Compound I-197] |
| < 0.1 | COCCN1C[C@@H](NC(=O)Nc2c(C)c(-c3cnc(C(=O)NC4CC4)c(C)c3)nn2-c2ccccc2)[C@H](c2cnc(F)c(F)c2)O1 [Compound I-254] |
| < 0.1 | COCCN1C[C@@H](NC(=O)Nc2c(C)c(-c3ccc(C(=O)OC)nc3)nn2-c2ccccc2)[C@H](c2ccc(F)c(F)c2)O1 (racemic) [Compound I-199] |
| 0.1 to 1 | Cc1c(-c2cnc3c(cnn3C)c2)nn(-c2ccccc2)c1NC(=O)N[C@@H]1CN(Cc2ccn[nH]2)O[C@H]1c1ccc(F)c(F)c1 (racemic) [Compound I-203] |
| < 0.1 | COCCN1C[C@@H](NC(=O)Nc2c(C)c(-c3cnc(OC)c(C(N)=O)c3)nn2-c2ccc(F)cc2)[C@H](c2ccnc(F)c2)O1 (racemic) [Compound I-238] |

Same assay, conditions: Table 155, human TrkA inhibition; read-out: IC50

| SMILES | IC50 [µM] |
| --- | --- |
| COCCN1C[C@@H](NC(=O)Nc2c(C)c(OCC3CN(C(=O)OC(C)(C)C)CCO3)nn2-c2ccccc2)[C@H](c2ccnc(F)c2)O1 (stereo partly shown) [Compound I-499] | < 0.1 |
| COCCN1C[C@@H](NC(=O)Nc2c(C)c(-c3ccc4nccn4c3)nn2-c2ccccc2)[C@H](c2ccc(F)c(F)c2)O1 [Compound I-460] | < 0.1 |
| COCCN1C[C@@H](NC(=O)Nc2c(C)c(-c3cnc4c(cnn4C)n3)nn2-c2ccccc2)[C@H](c2ccnc(F)c2)O1 (racemic) [Compound I-432] | < 0.1 |
| COCCN1C[C@@H](NC(=O)Nc2c(C)c(-c3cnc(N4CC5(COC5)C4)nc3)nn2-c2ccccc2)[C@H](c2ccnc(F)c2)O1 (racemic) [Compound I-373] | < 0.1 |
| COCCN1C[C@@H](NC(=O)Nc2c(C)c(-c3cnc4c(c3)N(C)C(CO)CO4)nn2-c2ccccc2)[C@H](c2ccnc(F)c2)O1 (mixture of isomers) [Compound I-338] | < 0.1 |
| COCCN1C[C@@H](NC(=O)Nc2c(C)c(-c3cnc(N4CC(O)C4)nc3)nn2-c2ccccc2)[C@H](c2cc(F)nc(F)c2)O1 (racemic) [Compound I-321] | < 0.1 |
| COCCN1C[C@@H](NC(=O)Nc2c(C)c(-c3cnc(N4CCNCC4)nc3)nn2-c2ccccc2)[C@H](c2ccnc(F)c2)O1 (racemic) [Compound I-414] | < 0.1 |
| COCCN1C[C@@H](NC(=O)Nc2c(C)c(-c3cnc(N4CC(F)C4)nc3)nn2-c2ccccc2)[C@H](c2ccnc(F)c2)O1 (racemic) [Compound I-480] | < 0.1 |
| CNC(=O)c1cc(-c2nn(-c3ccccc3)c(NC(=O)N[C@@H]3CN(C)O[C@H]3c3ccc(F)c(F)c3)c2C)cnc1OC (racemic) [Compound I-469] | < 0.1 |
| COCCN1C[C@@H](NC(=O)Nc2c(C)c(-c3ccc(N4CCC(NC(C)=O)C4)nc3)nn2-c2ccccc2)[C@H](c2ccnc(F)c2)O1 (stereo partly shown) [Compound I-349] | < 0.1 |
| COCCN1C[C@@H](NC(=O)Nc2c(C)c(N3CC(c4ccc(F)cc4)C3)nn2-c2ccccc2)[C@H](c2cnc(F)c(F)c2)O1 (racemic) [Compound I-336] | < 0.1 |
| COCCN1C[C@@H](NC(=O)Nc2c(C)c(-c3cnc(N4CCN(C)C(=O)C4)nc3)nn2-c2ccccc2)[C@H](c2ccnc(F)c2)O1 (racemic) [Compound I-488] | < 0.1 |
| COCCN1C[C@@H](NC(=O)Nc2c(C)c(OCc3ccon3)nn2-c2ccccc2)[C@H](c2ccnc(F)c2)O1 (racemic) [Compound I-457] | < 0.1 |
| CCN1C[C@@H](NC(=O)Nc2c(C)c(-c3cnc(OC)nc3)nn2-c2ccccc2)[C@H](c2ccc(F)c(F)c2)O1 (racemic) [Compound I-405] | < 0.1 |

Next, values leading:

| IC50 [µM] | SMILES |
| --- | --- |
| < 0.1 | COCCN1C[C@@H](NC(=O)Nc2c(C)c(-c3cnc(OC)cn3)nn2-c2ccccc2)[C@H](c2ccnc(F)c2)O1 (racemic) [Compound I-352] |
| < 0.1 | COCCN1C[C@@H](NC(=O)Nc2c(C)c(-c3cnc(OC4CCOCC4)nc3)nn2-c2ccccc2)[C@H](c2ccnc(F)c2)O1 (racemic) [Compound I-443] |
| < 0.1 | COCCN1C[C@@H](NC(=O)Nc2c(C)c(-c3cccnc3)nn2-c2ccccc2)[C@H](c2ccc(F)c(F)c2)O1 [Compound I-449] |
| < 0.1 | COCCN1C[C@@H](NC(=O)Nc2c(C)c(-c3cnc(Br)nc3)nn2-c2ccccc2)[C@H](c2ccnc(F)c2)O1 (racemic) [Compound I-433] |

Same assay, conditions: Table 156, human TrkA inhibition; read-out: IC50

| IC50 [µM] | SMILES |
| --- | --- |
| < 0.1 | COCCN1C[C@@H](NC(=O)Nc2c(C)c(-c3cnc(NCC(F)(F)F)nc3)nn2-c2ccccc2)[C@H](c2ccnc(F)c2)O1 (racemic) [Compound I-524] |
| < 0.1 | CNC(=O)c1cc(-c2nn(-c3ccccc3)c(NC(=O)N[C@@H]3CN(CCF)O[C@H]3c3ccc(F)c(F)c3)c2C)cnc1OC (racemic) [Compound I-550] |
| < 0.1 | COCCN1C[C@@H](NC(=O)Nc2c(C)c(-c3ccc(CO)nc3)nn2-c2ccccc2)[C@H](c2ccc(F)c(F)c2)O1 [Compound I-533] |

Same assay, conditions: Table 157, human TrkA inhibition; read-out: IC50

| IC50 [µM] | SMILES |
| --- | --- |
| < 0.1 | CCN1CCC(Oc2nn(-c3ccccc3)c(NC(=O)N[C@@H]3CN(CCOC)O[C@H]3c3ccc(F)c(F)c3)c2C)CC1 [Compound I-604] |
| < 0.1 | Cc1c(-c2ccncc2)nn(-c2ccccc2)c1NC(=O)N[C@@H]1CN(CC(F)F)O[C@H]1c1ccc(F)c(F)c1 (racemic) [Compound I-630] |
| < 0.1 | CCN1C[C@@H](NC(=O)Nc2c(C)c(OCCCC(=O)NC3CC3)nn2-c2ccccc2)[C@H](c2ccc(F)c(F)c2)O1 (racemic) [Compound I-665] |
| < 0.1 | CCN1C[C@@H](NC(=O)Nc2c(C)c(OC(C)C3CCN(C)CC3)nn2-c2ccccc2)[C@H](c2ccc(F)c(F)c2)O1 (stereo partly shown) [Compound I-679] |
| < 0.1 | CCCN1C[C@@H](NC(=O)Nc2c(C)c(-c3cnc(OC)nc3)nn2-c2ccccc2)[C@H](c2ccc(F)c(F)c2)O1 (racemic) [Compound I-676] |
| < 0.1 | CCN1C[C@@H](NC(=O)Nc2c(C)c(-c3ccc4nccn4c3)nn2-c2ccccc2)[C@H](c2ccc(F)c(F)c2)O1 (racemic) [Compound I-624] |
| < 0.1 | CCN1CCC(COc2nn(-c3ccccc3)c(NC(=O)N[C@@H]3CN(CC)O[C@H]3c3ccc(F)c(F)c3)c2C)CC1 (racemic) [Compound I-609] |

Same assay, conditions: human TrkA 1 nmol/L, ATP 500 μmol/L, 120 min at 37° C.; read-out: IC50 values (TrkA phosphorylation inhibition)

| SMILES | IC50 [µM] |
| --- | --- |
| CNC(=O)c1ncc(-c2nn(-c3ccccc3)c(NC(=O)N[C@@H]3CN(CCOC)O[C@H]3c3cnc(F)c(F)c3)c2C)cc1F (racemic) [Compound I-313] | 0.0036 |
| CNC(=O)c1cc(-c2nn(-c3ccccc3)c(NC(=O)N[C@@H]3CN(C)O[C@H]3c3ccc(F)c(F)c3)c2C)cn(C)c1=O (racemic) [Compound I-193] | 0.004 |
| COCCN1C[C@@H](NC(=O)Nc2c(C)c(-c3ccnc(C(=O)NOC)c3)nn2-c2ccccc2)[C@H](c2ccnc(F)c2)O1 (racemic) [Compound I-232] | 0.0042 |

The next lines start with the values.

| IC50 [µM] | SMILES |
| --- | --- |
| 5.2 | Cc1c(-c2cnn(C)c2)nn(-c2ccccc2)c1NC(=O)N[C@@H]1OC(C)(C)O[C@H]1c1ccccc1 (racemic) [Compound I-1] |
| 0.0017 | COCC[C@@H]1C[C@@H](NC(=O)Nc2c(C)c(-c3cnc4c(c3)CC(=O)N4C)nn2-c2ccccc2)[C@H](c2ccnc(F)c2)O1 [Compound I-329] |
